Assay [1] concerns lasB-gfp(ASV) reporter in P. aeruginosa PAO-JP2 biofilm. The assay is described as follows: OdDHL-mediated signalling in PAO-JP2 flowcell biofilm, lasB-gfp(ASV) reporter, CSLM. The class given is cell-based, Pseudomonas aeruginosa. As for the experimental part:
P. aeruginosa biofilms. Biofilms were grown at 30° C. in three-dimensional flow cells (Christensen et al., 1999) with individual channel dimensions of 0.3×4×40 mm supplied With ABt minimal medium supplemented with 2% LB. The flow system was assembled and prepared as described by Christensen et al. (1999). The substratum consisted of a microscope glass coverslip (Knittel 24×50 mm st1, Knittel Glaser, Braunschweig, Germany). Cultures for inoculation of the flow channels were prepared in the following way: P. aeruginosa strains were streaked on LB plates with the appropriate antibiotics and incubated for 24 h at 37° C. From each plate a single colony was used for inoculation of 10 ml ABt with 10% LB. The cultures were grown at, 30° C. for 18 h before they were diluted to an OD600 nm of 0.1 in sterile 0.9% NaCl and used for inoculation of the flow channels. Medium flow was kept at a constant rate of 3 mL/h, equivalent to a mean flow velocity of 0.7 mm/s, using a Watson-Marlow 205S peristaltic pump (Watson-Marlow, Falmouth, England). Biofilms were grown for 24 hours before being shifted to media containing AHL and furanone.
Scanning confocal laser microscopy (SCLM). Microscopic inspection and image acquisition were performed an a scanning confocal laser microscope (model TCS4D, Leica Lasertechnik GmbH, Heldelberg, Germany) equipped with a 63×/1.32-0.6 oil objective. The microscope was equipped with a motorized and programmable xy-stage, which was used for monitoring single colonies during the biofilm experiments. At the beginning of each online experiment, the microscope was programmed to track single randomly selected microcolonies; the sensitivity of photo multipliers and the laser intensity were adjusted and thereafter kept constant through out the duration of the experiments. Image scanning was carried out using the 488 nm and 568 nm lines of an Ar/Kr laser for detection of Gfp and Rfp, respectively. Visualization of captured images was performed using the IMARIS software package (Bitplane AG, Zúrich, Switzerland) running on a Silicon Graphics Indigo 2 workstation (Silicon Graphics, Mountain View, Calif. USA).
Inhibition of AHL-mediated signalling in P. aeruginosa biofilms. The lasB-gfp(ASV) reported was integrated into the chromosome of PAO-JP2 to ensure stable segregation and a constant gene dosage of the reported system. The strain was growth in flowcells for 24 hours in ABt-LB medium and a 10-15 μm thick biofilm developed. The media flow was subsequently switched to ABt-LB medium containing the appropriate AHL and furanone concentrations. The development of green fluorescence was monitored online by CSLM for 8 hours.

Assay [2] deals with OHHL induced LuxR dependent expression of GFP. The assay is described as follows: Quantitative furanone inhibition of the LuxR-PluxI-gfp(ASV) quorum sensor in E. coli MT102 (pJBA89). Format: cell-based, Escherichia coli. To be noted: gradient of furanone concentration lowering RFU to 40% versus OHHL concentration (5-100 nM). From the text: To analyse the AHL antagonist activity of the halogenated furanones we tested the compounds for their ability to inhibit 3oxo-C6-HSL (OHHL) induced LuxR dependent expression of green fluorescent protein (GFP) from a Pgfp(ASV) fusion in the AHL monitor strain E. coli MT102 harbouring pJBA89 (Andersen et al., 2001).
The medium used is minimal ABT containing 0.5% glucose and 0.5% Casamino Acids. In growing cultures of the AHL monitor strain E. coli Mt102 (pJBA89) encoding […] and a P-gfp(ASV) fusion, GFP(ASV) is produced immediately upon OHHL addition specifically from the LuxR controlled P-gfp(ASV) fusion gene. The sensitivity is high (responsive to as little as 3 nm OHHL) and due to the instability built into the GFP (ASV) variant there is no background production of green fluoroscence (Andersen et al., 2001). GFP expression from the AHL monitor strain E. coli MT102 (pJBA89) and the control strain MT102 harbouring the lacl^q, Plas-gfp(ASV) IPTG inducible expression system pMH197 was quantified in the following way. Overnight cultures were diluted four fold in fresh medium and incubated for one hour at 30° C. while OHHL and furanone compounds in the required concentrations were mixed in the wells of microtiter dishes. […] When absolute values were required, green fluoroscence was measured on a fluorometer (model RF-1501; Shimadzu, Tokyo, Japan) act at an excitation wavelength of 475 nm and emission detection at 515 nm. To establish a correlation between the colour code of the ARGUS-50 captured images and green fluorescence, both colour and relative fluorescence units (RFU), were determined for a dilution series of an E. coli MT102 (pJBA89) culture which had been incubated with […]. […]
From the second plot, the furanone concentration reducing the relative activity to 40% (ID60) is determined for each OHHL concentration. […]
To enable easy comparison of the strength of the furanones, an inhibition index (IIX40) is calculated for each furanone compound. […]

On to `O=C1C=C/C(=C/Br)O1` [furanone 56], for which the “induction of green fluorescence in biofilm” value in assay [1] (40 nM OdDHL and 2 μl/ml furanone 56, 8 hours) was “did not lead to induction of green fluorescence”; in assay [1] (80 nM OdDHL and 2 μg/ml furanone 56) it was “green fluorescence was induced”; in assay [1] (80 nM OdDHL and 4 μg/ml furanone, data not shown) it was “Induction of green fluorescence was established”. The “green fluorescence in biofilm” value in assay [1] (4 μg/ml alone, data not shown) is reported as “No green fluorescence was observed”. Also, the “inhibition index (IIX40)” value in assay [2] is given as 0.51 mole of furanone per mmole of.

Values taken from patent US20040147595A1, “Biofilm degrading or sloughing compositions and methods” (priority 2001, published 2004).
